The text below walks through data of patent publication US8609731B2, “Substituted tetrahydronaphthalenes, process for the preparation thereof and the use thereof as medicaments” (SANOFI, priority 2007, dated 2013).

What is called IC50 is the concentration that inhibits the measured activity by half. For orientation: kinetic solubility means the concentration staying in solution when a stock, usually in DMSO, is diluted into the medium.

For one series, the target named is T1, hERG channel (Homo sapiens, UniProt Q12809).
T1 construct: expressed in transfected cells; host or cells: CHO cells (ATCC), pcDNA3 vector, G418 selection
Nature of the series: hERG channel blockade, whole-cell patch clamp in CHO cells expressing hERG. The series is classed as cell-based. Conditions: CHO cells with stable hERG expression, room temperature, read-out: hERG Inh. IC50. The text has this: The aim of the test is to determine the concentration range in which the test compound blocks the cardiac hERG channel. Blockade of the hERG channel, which is responsible for the Ikr current in the human heart, is associated with potentially fatal arrhythmias.
For expression of the cDNA encoding the hERG channel it was cloned into the pcDNA3 vector (Invitrogen). Chinese hamster […] (CHO, American Type Culture Collection, Rockville, Md.) were transfected using lipofectamine (GIBCO/BRL, Grand Island, N.Y.) with the hERG cDNA and selected using G418 (GIBCO/BRL, Grand Island, N.Y.; 500 μg/ml). CHO cells with stable expression of the hERG channel were cultured on a HAM F-12 medium which was supplemented with 10% native bovine serum, 1× penicillin/streptomycin and 500 μg/ml G418 in an atmosphere of 95% air/5% carbon dioxide.
The cells selected for the patch clamp experiment are seeded on a plastic support 18-24 hours before the experiment. HERG channel currents are recorded at room temperature by the whole-cell variant of the patch clamp technique using an Axopatch 200B amplifier (Axon Instruments, Foster City, Calif.). The electrodes (3-6 megaohms resistance) are prepared from TW150F glass capillaries (World Precision Instruments, Sarasota, Fla.) and filled with the pipette solution (120 mM potassium aspartate, 20 mM KCl, 4 mM Na2ATP, 5 mM HEPES, 1 mM MgCl2; adjusted to pH 7.2 with KOH). The hERG channel currents are induced by a positive voltage pulse (20 mV) followed by a negative pulse (−40 mV) and are recorded for later analysis. As soon as the hERG channel current of the cell flushed with the control solution ([…], 5 mM KCl, 2.8 mM NaOAc, 1 mM MgCl2, 10 mM HEPES; 10 mM glucose, 1 mM CaCl2; adjusted to pH 7.4 with NaOH) is stable, the cell is perfused with the test compound dissolved in the above control solution (by dilution of a 10 or 100 mM DMSO solution of the test compound so that the DMSO content is no more than 0.1%). The current is followed continuously until no further changes occur. The same procedure is repeated with increasing concentrations of the test compound. The maximum amplitude of the hERG current is measured in picoAmperes (pA) for each concentration and for each cell. The maximum amplitude in pA for each concentration of the test compound is compared with that of the pure control solution in the same cell and calculated as % of the control value.
Evaluation: The test compound is tested at various concentrations in 3-5 CHO cells which express the hERG channel. The IC50 is obtained by use of nonlinear least squares regression (GraphPAD Software, San Diego, Calif.).
Background: Block of hERG is tested as a sign of cardiac risk.

A short description of another series: physchem. The format is physicochemical. Conditions: pH 7.4, aqueous buffer, kinetic from dmso stock. The procedure:
A DMSO solution of the test compound (2.5 mM; 0.5 μl) is pipetted into 200 μl of an aqueous test solution (e.g. phosphate-buffered saline, 10×, 1M, Sigma, adjusted to 10 mM, pH 7.4) in a 96-well microtiter plate, and the turbidity is measured at the resulting theoretical concentration for the test compound of 6.25 μM using a nephelometer (e.g. Nephelostar Galaxy, BMG Labtech). The concentration of the test compound in the aqueous test solution is then raised to a theoretical 12.5 μM by adding further DMSO solution (2.5 mM; 0.5 μl), and the turbidity measurement is repeated. Further additions of DMSO solutions (1 μl, 2.5 mM; 0.5 μl, 10 mM; then 9×1 μl, 10 mM resulting in theoretical concentrations of 25 μM, 50 μM, 100 μM, 150 μM, 200 μM, 250 μM, 300 μM, 350 μM, 400 μM, 450 μM and 500 μM) with turbidity measurement in between complete the measurement process.
Evaluation: The turbidity values from the nephelometer are plotted against the theoretical concentration of the test compound in the aqueous test solution. As soon as a significant turbidity is detected (e.g. 5 times above the control value of the aqueous test solution) at a theoretical concentration, the level of concentration below this is stated to be the solubility limit of the test compound in the test solution. Thus, the maximum possible measurement range emerges as values <6.25 μM, 6.25−500 μM and >500 μM.

In a further series the target is T2, human MCH receptor (Homo sapiens, UniProt Q99705).
T2 construct: expressed in transfected cells
Nature of the series: calcium mobilization assay (FLIPR); functional IC50 of MCH1R antagonists. The format is cell-based. Conditions: recombinant HEK293 cell line expressing human MCH receptor; calcium flux after addition of agonist MCH. The text has this:
Influence on the MCH Receptor In Vitro; Determination of Functional IC50 Values of MCH1R Antagonists
Cloning of the cDNA for the human MCH receptor, preparation of a recombinant HEK293 cell line which expresses the human MCH receptor, and functional measurements with the recombinant cell line took place in analogy to the description by Audinot et al. (J. Biol. Chem. 2001, 276, 13554-13562). A difference from the reference was, however, the use of the plasmid pEAK8 from EDGE Biosystems (USA) for the construction of the expression vector. The host used for the transfection was a transformed HEK cell line named “PEAK Stable Cells” (likewise from EDGE Biosystems). Functional measurements of the cellular calcium flux after addition of agonist (MCH) in the presence of ligand of the invention took place with the aid of the FLIPR apparatus from Molecular Devices (USA), using protocols of the apparatus manufacturer. The compounds of the invention show a significant inhibition (>30%) of the signal induced by the agonist at a concentration of 100 μM, preferably at 10 μM, particularly preferably at 1 μM, very particularly preferably at 100 nM and very very particularly preferably at 10 nM.
Background: Calcium assays in cells follow changes in intracellular calcium, usually with a dye or a luminescent sensor.

Each structure is given as a SMILES string. Values after ≈ are worked out from the molar mass of the structure shown.

T2 sequence (Q99705 whole entry): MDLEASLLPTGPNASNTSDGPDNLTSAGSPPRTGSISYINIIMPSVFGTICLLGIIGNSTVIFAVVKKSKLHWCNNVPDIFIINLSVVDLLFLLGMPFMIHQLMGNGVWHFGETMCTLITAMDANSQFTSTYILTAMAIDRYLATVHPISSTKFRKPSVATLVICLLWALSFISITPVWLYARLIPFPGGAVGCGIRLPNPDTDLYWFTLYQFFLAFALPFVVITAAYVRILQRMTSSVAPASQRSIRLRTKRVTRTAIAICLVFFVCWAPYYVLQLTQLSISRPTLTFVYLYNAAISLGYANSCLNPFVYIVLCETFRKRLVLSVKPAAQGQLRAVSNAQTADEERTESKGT
T1 sequence (Q12809 whole entry): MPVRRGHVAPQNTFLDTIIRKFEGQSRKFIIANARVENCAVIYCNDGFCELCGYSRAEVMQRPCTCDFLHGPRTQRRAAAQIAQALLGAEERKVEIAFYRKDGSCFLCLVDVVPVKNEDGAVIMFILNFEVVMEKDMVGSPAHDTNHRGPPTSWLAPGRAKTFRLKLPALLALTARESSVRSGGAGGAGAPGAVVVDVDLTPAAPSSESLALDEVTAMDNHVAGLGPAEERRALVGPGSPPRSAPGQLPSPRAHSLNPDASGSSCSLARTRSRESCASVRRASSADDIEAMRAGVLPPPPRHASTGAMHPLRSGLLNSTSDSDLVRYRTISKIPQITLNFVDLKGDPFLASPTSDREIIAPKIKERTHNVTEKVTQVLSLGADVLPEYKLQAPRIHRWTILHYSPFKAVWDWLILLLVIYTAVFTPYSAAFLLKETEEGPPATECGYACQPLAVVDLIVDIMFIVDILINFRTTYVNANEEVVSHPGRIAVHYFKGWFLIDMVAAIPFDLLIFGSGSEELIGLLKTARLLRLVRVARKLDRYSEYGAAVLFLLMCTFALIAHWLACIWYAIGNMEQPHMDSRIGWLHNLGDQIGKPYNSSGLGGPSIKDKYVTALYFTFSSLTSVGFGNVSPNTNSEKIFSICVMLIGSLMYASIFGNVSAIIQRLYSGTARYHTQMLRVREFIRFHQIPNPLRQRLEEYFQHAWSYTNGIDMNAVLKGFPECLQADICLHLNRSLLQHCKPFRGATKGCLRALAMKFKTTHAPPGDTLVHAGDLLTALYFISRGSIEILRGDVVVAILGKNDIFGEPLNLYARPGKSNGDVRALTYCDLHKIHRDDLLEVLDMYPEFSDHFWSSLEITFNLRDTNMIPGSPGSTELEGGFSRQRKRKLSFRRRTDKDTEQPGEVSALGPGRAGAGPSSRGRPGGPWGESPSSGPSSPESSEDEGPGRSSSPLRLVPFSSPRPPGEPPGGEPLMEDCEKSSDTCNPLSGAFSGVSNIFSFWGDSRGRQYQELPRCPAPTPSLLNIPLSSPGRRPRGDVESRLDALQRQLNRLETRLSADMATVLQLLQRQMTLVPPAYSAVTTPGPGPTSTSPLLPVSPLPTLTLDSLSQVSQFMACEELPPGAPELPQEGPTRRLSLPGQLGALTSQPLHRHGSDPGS

Take `CC1(C)CCN(Cc2ccc3c(c2)CC[C@H](NC(=O)c2ccc(OC[C@@H]4CCCO4)cc2)C3)CC1` [Example 3-166]: the half-inhibitory concentration (IC50) at hERG channel was above 10 µM; on human MCH receptor, 0.11 µM. The solubility (kinetic) in the series “physchem” is 450 µM (≈ 214 µg/mL).
On the same counts, the results for `CC(C)(C)CNCc1ccc2c(c1)CC[C@H](NC(=O)c1ccc(OC[C@@H]3CCCO3)cc1)C2` [Example 3-34] are above 30 µM, 0.1 µM and 50 µM (≈ 22.5 µg/mL).
For the molecule `O=C(N[C@H]1CCc2cc(CNC3CCCCC3)ccc2C1)c1ccc(OC[C@@H]2CCCO2)cc1` [Example 3-6], at hERG channel, the IC50 was above 10 µM. Besides, in the series “physchem”, the solubility (kinetic) is above 500 µM.
Consider `O=C(N[C@H]1CCc2cc(CN3CCCC3)ccc2C1)c1ccc(OC[C@@H]2CCCO2)cc1` [Example 1, N-((S)-6-Pyrrolidin-1-ylmethyl-1,2,3,4-tetrahydronaphthalen-2-yl)-4-[(S)-1-(tetrahydrofuran-2-yl)methoxy]benzamide], for which the IC50 on hERG channel is above 30 µM; on human MCH receptor it was 0.09 µM. In the series “physchem”, this molecule displayed a solubility (kinetic) above 500 µM.
Consider `O=C(N[C@H]1CCc2cc(CN3CC4CCC3C4)ccc2C1)c1ccc(OC[C@@H]2CCCO2)cc1` (stereo partly shown) [Example 3-83], for which, on hERG channel, the IC50 was above 30 µM. In the series “physchem”, this molecule returned a solubility (kinetic) above 500 µM.
On to `COC1CCN(Cc2ccc3c(c2)CC[C@H](N2CCc4cc(OC[C@@H]5CCCO5)ccc4C2=O)C3)CC1` [Example 14, 2-[(S)-6-(4-Methoxypiperidin-1-ylmethyl)-1,2,3,4-tetrahydronaphthalen-2-yl]-6-[(S)-1-(tetrahydrofuran-2-yl)methoxy]-3,4-dihydro-2H-isoquinolin-1-one], for which the half-maximal inhibitory concentration (IC50) at hERG channel is above 10 µM; at human MCH receptor, 0.63 µM. Also, the kinetic solubility in “physchem” was above 500 µM.
